# From US20020137929A1, “1 - (3-heterocyclylphenyl) isothiourea, -isourea, -guanidine and -amidine herbicidal agents” (Intellectual Property Department, BASF Aktiengesellschaft, priority 1998, published 2002)
# How the values were obtained:
# [1] = tested on: IPOHE (Morningglory, Ivyleaf); assay: Preemergence herbicidal evaluation; format: in vivo, Ipomoea hederacea; conditions: rated 4-5 weeks after treatment, rating scale 0-9
# Procedure, shortened: (§1)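 Test compound, dissolved in aqueous acetone, was sprayed over planted soil cups at an equivalent of about 0.0156 to 0.500 kg/ha; seeds had been mixed with potting soil. Greenhouse growth followed, with visual 0-9 scoring of injury at four to five weeks.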
# ABUTH (Velvetleaf) = assay: Preemergence herbicidal evaluation; format: in vivo, Abutilon theophrasti; conditions: rated 4-5 weeks after treatment, rating scale 0-9
# Procedure, shortened: as §1
# CASOB (Sicklepod) [2] = assay: Postemergence herbicidal evaluation; format: in vivo, Cassia obtusifolia; conditions: postemergence
# Procedure, shortened: (§2)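 Young plants, roughly two weeks from seeding, receive the active ingredient as a sprayed dispersion (acetone/water 50/50, 0.5% TWEEN 20) at 40 psi. Doses span about 0.0156 to 0.500 kg/ha. A visual score from 0 to 9 compares treated with control plants four to five weeks on.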
# MOOVA (Monochoria) = assay: Preemergence weed control under flooded paddy conditions; format: in vivo, Monochoria vaginalis; conditions: rated 3-4 weeks after treatment
# Procedure, shortened: (§3)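 Seeds or propagules sown in silt loam kept flooded 1.5-3 cm; compounds in 50/50 acetone/water pipetted into flood water at about 0.0313 to 0.500 kg/ha. Greenhouse; visual 0-9 rating versus untreated control 3-4 weeks after treatment.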
# [3] = tested on: CHEAL (Lambsquarters, Common); assay: Preemergence herbicidal evaluation; format: in vivo, Chenopodium album; conditions: rated 4-5 weeks after treatment, rating scale 0-9
# Procedure, shortened: as §1
# [4] = tested on: CHEAL (Lambsquarters, Common); assay: Postemergence herbicidal evaluation; format: in vivo, Chenopodium album; conditions: postemergence
# Procedure, shortened: as §2
# [5] = tested on: TRZAWR (Wheat, Winter, cv Riband); assay: Postemergence herbicidal evaluation; format: in vivo, Triticum aestivum; conditions: postemergence
# Procedure, shortened: as §2
# ORYSAT (Rice, Tebonnet) = assay: Preemergence herbicidal evaluation; format: in vivo, Oryza sativa, (L.) Tebonnet; conditions: rated 4-5 weeks after treatment, rating scale 0-9
# Procedure, shortened: as §1
# [6] = tested on: GLXMAW (Soybean, Williams); assay: Postemergence herbicidal evaluation; format: in vivo, Glycine max, (L.) Merr. cv Williams; conditions: postemergence
# Procedure, shortened: as §2
# [7] = tested on: IPOHE (Morningglory, Ivyleaf); assay: Postemergence herbicidal evaluation; format: in vivo, Ipomoea hederacea; conditions: postemergence
# Procedure, shortened: as §2
# CASOB (Sicklepod) [8] = assay: Preemergence herbicidal evaluation; format: in vivo, Cassia obtusifolia; conditions: rated 4-5 weeks after treatment, rating scale 0-9
# Procedure, shortened: as §1
# [9] = tested on: GLXMAW (Soybean, Williams); assay: Preemergence herbicidal evaluation; format: in vivo, Glycine max, (L.) Merr. cv Williams; conditions: rated 4-5 weeks after treatment, rating scale 0-9
# Procedure, shortened: as §1
# ECHCG (Barnyardgrass) = assay: Postemergence herbicidal evaluation; format: in vivo, Echinochloa crus-galli; conditions: postemergence
# Procedure, shortened: as §2
# AMBEL (Ragweed, Common) [10] = assay: Preemergence herbicidal evaluation; format: in vivo, Ambrosia artemisifolia; conditions: rated 4-5 weeks after treatment, rating scale 0-9
# Procedure, shortened: as §1
# AMBEL (Ragweed, Common) [11] = assay: Postemergence herbicidal evaluation; format: in vivo, Ambrosia artemisifolia; conditions: postemergence
# Procedure, shortened: as §2
# [12] = tested on: SAGPY (Arrowhead (Pygmaea)); assay: Preemergence weed control under flooded paddy conditions; format: in vivo, Sagittaria pygmaea; conditions: rated 3-4 weeks after treatment
# Procedure, shortened: as §3
smiles,measurement,setting,value
"COc1ccc(CN2C(=O)CSC2=Nc2cc(-n3c(=O)cc(C(F)(F)F)n(C)c3=O)c(F)cc2Cl)cc1OC [Compound 134, 3-{4-Chloro-5-{[3-(3,4-dimethoxybenzyl)-4-oxo-2-thiazolidinylidene]amino}-2-fluorophenyl}-1-methyl-6-(trifluoromethyl)-2,4(1H,3H)-pyrimidinedione]",Preemergence herbicidal rating IPOHE,[1]; rate 0.1250 kg/ha,0.0
same,Preemergence herbicidal rating IPOHE,[1]; rate 0.2500 kg/ha,0.0
same,Preemergence herbicidal rating ABUTH,ABUTH (Velvetleaf); rate 0.1250 kg/ha,0.0
same,Preemergence herbicidal rating ABUTH,ABUTH (Velvetleaf); rate 0.2500 kg/ha,7.0
same,herbicidal rating CASOB,CASOB (Sicklepod) [2]; rate 0.0156 kg/ha,0.0
same,herbicidal rating CASOB,CASOB (Sicklepod) [2]; rate 0.0313 kg/ha,0.0
same,herbicidal rating CASOB,CASOB (Sicklepod) [2]; rate 0.0625 kg/ha,0.0
same,"herbicidal effect rating, MOOVA",MOOVA (Monochoria); 0.2500 kg/ha,2.0
same,Preemergence herbicidal rating CHEAL,[3]; rate 0.1250 kg/ha,9.0
same,Preemergence herbicidal rating CHEAL,[3]; rate 0.2500 kg/ha,9.0
same,herbicidal rating CHEAL,[4]; rate 0.0156 kg/ha,1.0
same,herbicidal rating CHEAL,[4]; rate 0.0313 kg/ha,3.0
same,herbicidal rating CHEAL,[4]; rate 0.0625 kg/ha,4.0
same,herbicidal rating TRZAWR,[5]; rate 0.0156 kg/ha,2.5
same,herbicidal rating TRZAWR,[5]; rate 0.0313 kg/ha,3.5
same,herbicidal rating TRZAWR,[5]; rate 0.0625 kg/ha,4.0
same,Preemergence herbicidal rating ORYSAT,"ORYSAT (Rice, Tebonnet); rate 0.1250 kg/ha",0.0
same,Preemergence herbicidal rating ORYSAT,"ORYSAT (Rice, Tebonnet); rate 0.2500 kg/ha",0.0
same,herbicidal rating GLXMAW,[6]; rate 0.0156 kg/ha,3.5
same,herbicidal rating GLXMAW,[6]; rate 0.0313 kg/ha,4.0
same,herbicidal rating GLXMAW,[6]; rate 0.0625 kg/ha,5.0
same,herbicidal rating IPOHE,[7]; rate 0.0156 kg/ha,3.0
same,herbicidal rating IPOHE,[7]; rate 0.0313 kg/ha,9.0
same,herbicidal rating IPOHE,[7]; rate 0.0625 kg/ha,9.0
same,Preemergence herbicidal rating CASOB,CASOB (Sicklepod) [8]; rate 0.1250 kg/ha,0.0
same,Preemergence herbicidal rating CASOB,CASOB (Sicklepod) [8]; rate 0.2500 kg/ha,1.0
same,Preemergence herbicidal rating GLXMAW,[9]; rate 0.1250 kg/ha,0.0
same,Preemergence herbicidal rating GLXMAW,[9]; rate 0.2500 kg/ha,0.0
same,herbicidal rating ECHCG,ECHCG (Barnyardgrass); rate 0.0156 kg/ha,0.0
same,herbicidal rating ECHCG,ECHCG (Barnyardgrass); rate 0.0313 kg/ha,2.0
same,herbicidal rating ECHCG,ECHCG (Barnyardgrass); rate 0.0625 kg/ha,1.0
same,Preemergence herbicidal rating AMBEL,"AMBEL (Ragweed, Common) [10]; rate 0.1250 kg/ha",0.0
same,Preemergence herbicidal rating AMBEL,"AMBEL (Ragweed, Common) [10]; rate 0.2500 kg/ha",3.0
same,herbicidal rating AMBEL,"AMBEL (Ragweed, Common) [11]; rate 0.0156 kg/ha",3.0
same,herbicidal rating AMBEL,"AMBEL (Ragweed, Common) [11]; rate 0.0313 kg/ha",4.0
same,herbicidal rating AMBEL,"AMBEL (Ragweed, Common) [11]; rate 0.0625 kg/ha",7.0
same,"herbicidal effect rating, SAGPY",[12]; 0.2500 kg/ha,0.0
"Cn1c(C(F)(F)F)cc(=O)n(-c2cc(N=C3SCC(=O)N3Cc3ccc(S(N)(=O)=O)cc3)c(Cl)cc2F)c1=O [Compound 135, Alpha-{2-{{2-chloro-5-[3,6-dihydro-3-methyl-2,6-dioxo-4-(trifluoromethyl)-1(2H)-pyrimidinyl]-4-fluorophenyl}imino}-4-oxo-3-thiazolidinyl}-p-toluenesulfonamide]",Preemergence herbicidal rating IPOHE,[1]; rate 0.0156 kg/ha,0.0
same,Preemergence herbicidal rating IPOHE,[1]; rate 0.0313 kg/ha,0.0
same,Preemergence herbicidal rating IPOHE,[1]; rate 0.0625 kg/ha,1.0
same,Preemergence herbicidal rating IPOHE,[1]; rate 0.1250 kg/ha,9.0
same,Preemergence herbicidal rating IPOHE,[1]; rate 0.2500 kg/ha,9.0
same,Preemergence herbicidal rating ABUTH,ABUTH (Velvetleaf); rate 0.0156 kg/ha,0.0
same,Preemergence herbicidal rating ABUTH,ABUTH (Velvetleaf); rate 0.0313 kg/ha,0.0
same,Preemergence herbicidal rating ABUTH,ABUTH (Velvetleaf); rate 0.0625 kg/ha,3.0
same,Preemergence herbicidal rating ABUTH,ABUTH (Velvetleaf); rate 0.1250 kg/ha,6.0
same,Preemergence herbicidal rating ABUTH,ABUTH (Velvetleaf); rate 0.2500 kg/ha,8.0
same,herbicidal rating CASOB,CASOB (Sicklepod) [2]; rate 0.0156 kg/ha,2.0
same,herbicidal rating CASOB,CASOB (Sicklepod) [2]; rate 0.0313 kg/ha,4.0
same,herbicidal rating CASOB,CASOB (Sicklepod) [2]; rate 0.0625 kg/ha,4.0
same,"herbicidal effect rating, MOOVA",MOOVA (Monochoria); 0.0313 kg/ha,6.0
same,"herbicidal effect rating, MOOVA",MOOVA (Monochoria); 0.0625 kg/ha,9.0
same,"herbicidal effect rating, MOOVA",MOOVA (Monochoria); 0.1250 kg/ha,9.0
same,"herbicidal effect rating, MOOVA",MOOVA (Monochoria); 0.2500 kg/ha,8.0
same,Preemergence herbicidal rating CHEAL,[3]; rate 0.0156 kg/ha,7.0
same,Preemergence herbicidal rating CHEAL,[3]; rate 0.0313 kg/ha,7.0
same,Preemergence herbicidal rating CHEAL,[3]; rate 0.0625 kg/ha,9.0
same,Preemergence herbicidal rating CHEAL,[3]; rate 0.1250 kg/ha,9.0
same,Preemergence herbicidal rating CHEAL,[3]; rate 0.2500 kg/ha,9.0
same,herbicidal rating CHEAL,[4]; rate 0.0156 kg/ha,4.0
same,herbicidal rating CHEAL,[4]; rate 0.0313 kg/ha,7.0
same,herbicidal rating CHEAL,[4]; rate 0.0625 kg/ha,9.0
same,herbicidal rating TRZAWR,[5]; rate 0.0156 kg/ha,2.5
same,herbicidal rating TRZAWR,[5]; rate 0.0313 kg/ha,2.5
same,herbicidal rating TRZAWR,[5]; rate 0.0625 kg/ha,3.0
same,Preemergence herbicidal rating ORYSAT,"ORYSAT (Rice, Tebonnet); rate 0.0156 kg/ha",1.0
same,Preemergence herbicidal rating ORYSAT,"ORYSAT (Rice, Tebonnet); rate 0.0313 kg/ha",1.0
same,Preemergence herbicidal rating ORYSAT,"ORYSAT (Rice, Tebonnet); rate 0.0625 kg/ha",1.0
same,Preemergence herbicidal rating ORYSAT,"ORYSAT (Rice, Tebonnet); rate 0.1250 kg/ha",1.0
same,Preemergence herbicidal rating ORYSAT,"ORYSAT (Rice, Tebonnet); rate 0.2500 kg/ha",7.0
same,herbicidal rating GLXMAW,[6]; rate 0.0156 kg/ha,5.0
same,herbicidal rating GLXMAW,[6]; rate 0.0313 kg/ha,5.0
same,herbicidal rating GLXMAW,[6]; rate 0.0625 kg/ha,5.0
same,herbicidal rating IPOHE,[7]; rate 0.0156 kg/ha,9.0
same,herbicidal rating IPOHE,[7]; rate 0.0313 kg/ha,9.0
same,herbicidal rating IPOHE,[7]; rate 0.0625 kg/ha,9.0
same,Preemergence herbicidal rating CASOB,CASOB (Sicklepod) [8]; rate 0.0156 kg/ha,0.0
same,Preemergence herbicidal rating CASOB,CASOB (Sicklepod) [8]; rate 0.0313 kg/ha,1.0
same,Preemergence herbicidal rating CASOB,CASOB (Sicklepod) [8]; rate 0.0625 kg/ha,1.0
same,Preemergence herbicidal rating CASOB,CASOB (Sicklepod) [8]; rate 0.1250 kg/ha,1.0
same,Preemergence herbicidal rating CASOB,CASOB (Sicklepod) [8]; rate 0.2500 kg/ha,5.0
same,Preemergence herbicidal rating GLXMAW,[9]; rate 0.0156 kg/ha,0.0
same,Preemergence herbicidal rating GLXMAW,[9]; rate 0.0313 kg/ha,0.0
same,Preemergence herbicidal rating GLXMAW,[9]; rate 0.0625 kg/ha,0.0
same,Preemergence herbicidal rating GLXMAW,[9]; rate 0.1250 kg/ha,1.0
same,Preemergence herbicidal rating GLXMAW,[9]; rate 0.2500 kg/ha,3.0
same,herbicidal rating ECHCG,ECHCG (Barnyardgrass); rate 0.0156 kg/ha,1.0
same,herbicidal rating ECHCG,ECHCG (Barnyardgrass); rate 0.0313 kg/ha,2.0
same,herbicidal rating ECHCG,ECHCG (Barnyardgrass); rate 0.0625 kg/ha,2.0
same,Preemergence herbicidal rating AMBEL,"AMBEL (Ragweed, Common) [10]; rate 0.0156 kg/ha",0.0
same,Preemergence herbicidal rating AMBEL,"AMBEL (Ragweed, Common) [10]; rate 0.0313 kg/ha",0.0
same,Preemergence herbicidal rating AMBEL,"AMBEL (Ragweed, Common) [10]; rate 0.0625 kg/ha",0.0
same,Preemergence herbicidal rating AMBEL,"AMBEL (Ragweed, Common) [10]; rate 0.1250 kg/ha",4.0
same,Preemergence herbicidal rating AMBEL,"AMBEL (Ragweed, Common) [10]; rate 0.2500 kg/ha",7.0
same,herbicidal rating AMBEL,"AMBEL (Ragweed, Common) [11]; rate 0.0156 kg/ha",9.0
same,herbicidal rating AMBEL,"AMBEL (Ragweed, Common) [11]; rate 0.0313 kg/ha",9.0
same,herbicidal rating AMBEL,"AMBEL (Ragweed, Common) [11]; rate 0.0625 kg/ha",9.0
same,"herbicidal effect rating, SAGPY",[12]; 0.0313 kg/ha,0.0
same,"herbicidal effect rating, SAGPY",[12]; 0.0625 kg/ha,3.0
same,"herbicidal effect rating, SAGPY",[12]; 0.1250 kg/ha,5.0
same,"herbicidal effect rating, SAGPY",[12]; 0.2500 kg/ha,6.0
